Experimental data: US7893299B2, “Interleukin-1 and tumor necrosis factor-αmodulators; syntheses of such modulators and methods of using such modulators” (Nereus Pharmaceuticals, Inc., priority 2005, dated 2011)
Like-named read-outs stand apart in the source and are kept apart here.

Assays:
[1] = test system: PC-3 cells; assay: cell growth inhibition, PC-3, Resazurin, 1% FBS; assay type: cell-based, Human; conditions: 48 hr of drug exposure
Experimental: Human prostate adenocarcinoma (PC-3; CRL-1435), multiple myeloma (RPMI 8226; CCL-155) and embryonic kidney (HEK-293; CRL-1573) cells were all purchased from ATCC and maintained in appropriate culture media. The cells were cultured in an incubator at 37° C. in 5% CO2 and 95% humidified air.
For cell growth inhibition assays, PC-3 and HEK-293 cells were seeded at 5×10^3 and 1.5×10^3 cells/well respectively in 90 μl media containing 1% (v/v) FBS into 96 well (Corning; 3904) black-walled, clear-bottom tissue culture plates and the plates were incubated overnight to allow cells to establish and enter log phase growth. RPMI 8226 cells were seeded at 2×10^4 cells/well respectively in 90 μl media containing 1% (v/v) FBS into 96 well plates on the day of the assay. 4 mg/ml stock solutions of the compounds were prepared in 100% DMSO and stored at −20° C. The compounds were serially diluted and added in triplicate to the test wells. LT-1-85 was tested at concentrations ranging from 27 μM to 8.6 nM. Concentrations ranging from 30 μM to 9.7 nM were tested for CC-3-13P. Formula (IIB-A1) was tested at concentrations ranging from 26 μM to 8.4 nM. The plates were returned to the incubator for 48 hours. The final concentration of DMSO was 0.25% in all samples.
Following 48 hours of drug exposure, 10 μl of 0.2 mg/ml Resazurin in Mg2+, Ca2+ free phosphate buffered saline was added to each well and the plates were returned to the incubator for 3-6 hours. Since living cells metabolize Resazurin, the fluorescence of the reduction product of Resazurin was measured using a Fusion microplate fluorometer (Packard Bioscience) with λex=535 nm and λem=590 nm filters. Resazurin dye in medium without cells was used to determine the background, which was subtracted from the data for all experimental wells. […] Where the maximum inhibition of cell growth was less than 50%, an EC50 value was not determined. The data in Table 25 summarize the growth inhibitory effects of LT-1-85, CC-3-13P and formula (IIB-A1) against HEK-293, PC-3 and RPMI 8226 cells. The EC50 values indicate that LT-1-85 and CC-3-13P are cytotoxic against HEK-293, PC-3 and RPMI 8226 cells. Formula (IIB-A1) is cytotoxic against RPMI 8226 cells.

[2] = test system: RPMI 8226 (MM); assay: 48 hr cytotoxicity, RPMI 8226; assay type: cell-based, human
Experimental: Human colon adenocarcinoma HT-29 (ATCC# HTB-38), prostate adenocarcinoma PC-3 (ATCC# CRL-1435), breast adenocarcinoma MDA-MB231 (ATCC# HTB-26), Multiple Myeloma RPMI 8226 (ATCC# CCL-155) and U266 (ATCC # TIB-196) cell lines and human normal fibroblast CCD-27sk (ATCC# CRL-1475) were all purchased from ATCC (Manassas, Va.). The cells were maintained in their respective ATCC recommended culture media at 37° C., 5% CO2 and 95% humidified air.
The cytotoxicity assays were performed by seeding individual cell lines at appropriate density in the 96 well flat-bottomed plates and allowed to attach for 24 hours at 37° C., 5% CO2 and 95% humidified air (RPMI 8226 and U266 cells were plated in 96 well plates on the day of compound addition). Serially diluted NPI-1387 was added in triplicate to cells at concentrations ranging from 160 nM to 20 μM. Final concentration of 0.25% (v/v) DMSO was used as the vehicle control. Cell viability was assessed 48 hours later by measuring the fluorescence of the reduction product of Resazurin by a Fusion microplate fluorometer (PerkinElmer) with λex=535 nm and λem=590 nm filters. The IC50 values (the drug concentration at which 50% of the maximal observed cytotoxicity is established) were calculated in XLFit 3.0 or XLFit 4.0 (ID Business Solutions Ltd) using a sigmoidal dose response model.

[3] = test system: IκBα and p38 MAP kinase phosphorylation; assay: LPS- or TNF-α-induced phosphorylation of IκBα and p38 MAP kinase in RPMI 8226 cells; assay type: cell-based; conditions: 13 μM
Experimental: One ml/well of 2×10^6/ml RPMI 8226 cells (#CCL-155C, American Type Culture Collection) were seeded in 6-well plate in LGM-3 medium and cultured for overnight at 37° C., 5% CO2 and 95% humidified air. Formula (IIB-A1) was added to RPMI 8226 cells at the final concentration of 13 μM for 1 hr. DMSO was used as a control. Cells were then either stimulated by LPS (50 ng/ml) or by TNF-α (10 ng/ml) for various length of time. At the end of each period of stimulation, cells were harvested by centrifugation and cell pellets were washed once in ice-cold 1× Dulbecco's Phosphate buffered Saline (DPBS). To prepare samples for SDS-PAGE, cells were lysed in RIPA buffer (50 mM Tris-HCl, pH7.4, 0.9% NaCl, 1% Triton X-100, 0.25% Na-deoxycholate, 1 mM EDTA, 2 mM Na3VO4 and 1× protease inhibitors cocktail) for 15 min on ice. Cell lysates were cleared by centrifugation at 14,000 rpm, 4° C. for 10 min. Protein concentrations of cell lysates were determined by BCA protein assay kit prior to SDS-PAGE. Equal amount of proteins from various cell lysates were resolved on 10% NuPage MES precast gels and transferred to nitrocellulose membranes according to the manufacturer's instructions. […]

C=C[C@@]1(C)CCC=C2[C@H]1CC[C@@H]1[C@](C)(C(=O)N3CCOCC3)CCC[C@@]21C [LT-1-85]
EC50 [1]: 19 µM | EC50 ([1]; Homo sapiens, PC-3, 48 h): 22 µM

C=CC(=O)C1(C)CCCC2(C)C3=CCC(C)(C=C)C[C@@H]3CC[C@H]12 (stereo in doubt) [NPI-1387, 1-[(1S,4aS,7R)-1,4a,7-Trimethyl-7-vinyl-1,2,3,4,4a,6,7,8,8a,9,10,10a-dodecahydro-1-phenanthrenyl]-2-propen-1-one]
IC50 [2]: 5.5 ± 0.8 µM | IC50 ([2]; Homo sapiens, RPMI-8226, 48 h): 5.1 ± 1 µM

C=C[C@@]1(C)CCC=C2[C@H]1CC[C@@H]1[C@](C)(C(=O)NC3CCCCC3)CCC[C@@]21C [Formula (IIB-A1), N-Cyclohexylamide Derivative of TTL]
EC50 ([1]; Homo sapiens, PC-3, 48 h): > 26 µM | phosphorylation levels of IκBα and p38 MAP kinase induced by LPS and TNF-α in RPMI 8226 cells [3]: specifically inhibits LPS-induced phosphorylation of IκBα and p38 MAP kinase | phosphorylation levels of IκBα and p38 MAP kinase induced by LPS and TNF-α in RPMI 8226 cells ([3]; listed as formula (IIB-A1)): specifically decreases LPS-induced phosphorylation of IκBα and p38 MAP kinase
